Reference: ChEMBL document CHEMBL6109139, “Rational Design of the First Dual Agonist at Trace Amine-Associated Receptor 1 and 5-HT2C Receptors Based on Binding Pocket Similarity for the Treatment of Schizophrenia and Alzheimer's Disease-Related Psychosis” (J Med Chem, 2025)
Calls of active or inactive are those of the source. No cut-off for these calls is given here.

Assays:
[1] = tested on: 5-hydroxytryptamine receptor 2C (Homo sapiens), P28335 [D134A]; test: Agonist activity at 5HT2CR D134A mutant (unknown origin) expressed in HEK293 cells assessed as IP1 level by HTRF IP1 competitive binding assay; type: cell-based
Chain of 5-hydroxytryptamine receptor 2C (Homo sapiens), P28335 [D134A] (P28335 whole entry D134A): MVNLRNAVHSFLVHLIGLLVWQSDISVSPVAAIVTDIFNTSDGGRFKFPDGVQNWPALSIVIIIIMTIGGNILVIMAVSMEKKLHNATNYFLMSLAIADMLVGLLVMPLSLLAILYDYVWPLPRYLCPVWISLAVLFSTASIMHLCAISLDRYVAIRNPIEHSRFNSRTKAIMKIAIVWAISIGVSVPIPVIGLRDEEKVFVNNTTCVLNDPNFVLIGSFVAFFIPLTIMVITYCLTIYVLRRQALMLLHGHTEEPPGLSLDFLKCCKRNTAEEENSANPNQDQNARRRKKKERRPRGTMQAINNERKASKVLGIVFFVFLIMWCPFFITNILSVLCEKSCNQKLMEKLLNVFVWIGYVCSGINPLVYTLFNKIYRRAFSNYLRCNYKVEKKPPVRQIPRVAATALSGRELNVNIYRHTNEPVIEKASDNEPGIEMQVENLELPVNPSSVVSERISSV

Cytochrome P450 2B6 = Cytochrome P450 2B6 (Homo sapiens, UniProt P20813); test: Inhibition of CYP2B6 in human liver microsomes in presence of NADPH by LC-MS/MS analysis; type: ADME, Microsome
Chain of Cytochrome P450 2B6 (P20813 whole entry): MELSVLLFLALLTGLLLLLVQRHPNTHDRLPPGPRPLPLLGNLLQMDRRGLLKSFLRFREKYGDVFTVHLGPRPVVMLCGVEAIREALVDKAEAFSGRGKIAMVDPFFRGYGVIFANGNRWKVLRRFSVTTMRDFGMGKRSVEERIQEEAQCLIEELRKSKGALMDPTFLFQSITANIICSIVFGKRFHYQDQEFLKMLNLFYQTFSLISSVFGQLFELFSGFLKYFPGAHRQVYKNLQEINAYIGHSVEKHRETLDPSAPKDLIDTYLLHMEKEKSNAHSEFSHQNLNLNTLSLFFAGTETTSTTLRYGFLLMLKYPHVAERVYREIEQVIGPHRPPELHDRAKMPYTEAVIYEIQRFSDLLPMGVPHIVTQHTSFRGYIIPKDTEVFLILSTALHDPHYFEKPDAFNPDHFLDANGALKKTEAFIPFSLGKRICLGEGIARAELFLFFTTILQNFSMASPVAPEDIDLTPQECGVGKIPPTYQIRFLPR

[2] = Drug concentration in male Sprague-Dawley rat brain at 5 mg/kg, IG measured after 0.25 hrs by LC-MS/MS analysis; type: ADME, organism-based; conditions: in vivo, po
Mus musculus [3] = test: Antipsychotic activity against MK-801 induced hypermobilization in male C57BL/6J mouse model assessed as reduction in hypermobilization state at 10 mg/kg, IG pretreated with compound followed by MK-801 addition and measured after 30 mins by open field test; type: functional, organism-based
Mus musculus [4] = test: Antipsychotic activity against DOI-induced head-twitch response in mouse assessed as reduction in head-twitch response administered intragastrically and measured for 30 mins; type: functional, organism-based; conditions: dose 1-10 mg/kg
Mus musculus [5] = test: Antipsychotic activity in amyloid beta (1 to 42) induced hyperlocomotion in mouse model assessed as decrease in total distance traveled at 10 mg/kg by open field test; type: functional, organism-based
Mus musculus [6] = test: Antipsychotic activity in amyloid beta(1 to 42) induced cognitive impairment in mouse model assessed as increase in discrimination ratio of novel objects at 1 mg/kg, IG measured after 24 hrs by novel object recognition test; type: functional, organism-based
Mus musculus [7] = species: Mus musculus; test: Antipsychotic activity against MK-801 induced hyperlocomotion in male C57BL/6J mouse model assessed as effective dose; type: functional
[8] = molecular target: 5-hydroxytryptamine receptor 7 (Homo sapiens, UniProt P34969); test: Agonist activity at recombinant human 5-HT7 expressed in HEK293 cells by FLIPR calcium assay; type: functional, cell-based
Chain of 5-hydroxytryptamine receptor 7 (P34969 whole entry): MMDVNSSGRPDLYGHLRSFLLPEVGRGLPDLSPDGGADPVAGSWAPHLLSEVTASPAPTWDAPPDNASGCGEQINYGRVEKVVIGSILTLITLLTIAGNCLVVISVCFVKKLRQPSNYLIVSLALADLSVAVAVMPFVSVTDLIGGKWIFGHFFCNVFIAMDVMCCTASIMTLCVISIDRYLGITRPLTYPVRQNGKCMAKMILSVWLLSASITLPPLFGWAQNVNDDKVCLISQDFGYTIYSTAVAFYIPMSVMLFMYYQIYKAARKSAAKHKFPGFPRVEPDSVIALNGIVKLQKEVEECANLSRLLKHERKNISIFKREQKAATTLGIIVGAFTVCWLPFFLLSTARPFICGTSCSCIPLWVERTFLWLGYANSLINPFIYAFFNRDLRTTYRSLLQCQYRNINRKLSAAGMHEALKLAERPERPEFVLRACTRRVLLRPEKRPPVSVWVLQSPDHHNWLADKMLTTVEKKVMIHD

D(2) dopamine receptor = D(2) dopamine receptor (Homo sapiens, UniProt P14416); test: Antagonist activity at human D2S receptor expressed in Flp-In-CHO cells; type: cell-based
Chain of D(2) dopamine receptor (P14416 whole entry): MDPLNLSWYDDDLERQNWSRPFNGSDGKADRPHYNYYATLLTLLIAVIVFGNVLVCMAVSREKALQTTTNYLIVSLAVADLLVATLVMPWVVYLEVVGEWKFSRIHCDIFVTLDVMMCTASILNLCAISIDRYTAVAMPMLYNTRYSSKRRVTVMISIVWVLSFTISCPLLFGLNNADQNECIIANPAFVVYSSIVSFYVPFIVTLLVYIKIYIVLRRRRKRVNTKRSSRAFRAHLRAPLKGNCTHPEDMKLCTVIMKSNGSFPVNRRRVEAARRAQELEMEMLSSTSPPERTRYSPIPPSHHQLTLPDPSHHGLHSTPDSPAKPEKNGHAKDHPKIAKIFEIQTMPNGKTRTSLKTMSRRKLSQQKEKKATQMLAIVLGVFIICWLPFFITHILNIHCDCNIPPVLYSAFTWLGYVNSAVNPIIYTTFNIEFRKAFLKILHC

[9] = molecular target: 5-hydroxytryptamine receptor 2A (Homo sapiens) (UniProt P28223); test: Binding affinity to 5-HT2A (unknown origin) at 10 uM by radioligand binding assay relative to control
Chain of 5-hydroxytryptamine receptor 2A (Homo sapiens) (P28223 whole entry): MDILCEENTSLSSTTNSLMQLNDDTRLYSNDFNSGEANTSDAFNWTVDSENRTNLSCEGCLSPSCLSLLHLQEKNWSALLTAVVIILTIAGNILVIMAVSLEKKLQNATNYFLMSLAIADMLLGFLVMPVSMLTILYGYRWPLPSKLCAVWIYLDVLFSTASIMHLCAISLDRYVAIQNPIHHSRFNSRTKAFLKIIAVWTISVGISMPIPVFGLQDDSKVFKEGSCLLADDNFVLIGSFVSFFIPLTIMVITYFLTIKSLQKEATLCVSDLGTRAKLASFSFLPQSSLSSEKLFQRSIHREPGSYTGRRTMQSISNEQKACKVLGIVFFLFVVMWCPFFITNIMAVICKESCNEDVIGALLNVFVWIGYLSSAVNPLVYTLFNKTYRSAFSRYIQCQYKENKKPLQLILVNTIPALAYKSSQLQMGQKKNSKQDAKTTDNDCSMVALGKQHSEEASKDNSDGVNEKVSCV

[10] = molecular target: Beta-1 adrenergic receptor (Homo sapiens) (UniProt P08588); test: Binding affinity to beta 1 receptor (unknown origin) at 10 uM by radioligand binding assay relative to control
Chain of Beta-1 adrenergic receptor (Homo sapiens) (P08588 whole entry, looked up): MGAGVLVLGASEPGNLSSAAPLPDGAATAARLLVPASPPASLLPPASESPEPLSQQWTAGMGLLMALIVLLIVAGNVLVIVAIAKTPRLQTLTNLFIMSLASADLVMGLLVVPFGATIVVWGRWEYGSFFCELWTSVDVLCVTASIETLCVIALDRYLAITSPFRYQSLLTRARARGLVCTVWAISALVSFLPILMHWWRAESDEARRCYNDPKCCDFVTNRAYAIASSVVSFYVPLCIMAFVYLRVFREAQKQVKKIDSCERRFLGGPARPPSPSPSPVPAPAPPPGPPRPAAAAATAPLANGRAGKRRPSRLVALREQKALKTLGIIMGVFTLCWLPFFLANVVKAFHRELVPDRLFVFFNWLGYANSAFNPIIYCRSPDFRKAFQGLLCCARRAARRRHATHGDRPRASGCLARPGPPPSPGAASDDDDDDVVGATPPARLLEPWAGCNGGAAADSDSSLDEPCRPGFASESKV

[11] = molecular target: Sodium-dependent noradrenaline transporter (Homo sapiens) (UniProt P23975); test: Binding affinity to NET receptor (unknown origin) at 10 uM by radioligand binding assay relative to control
Chain of Sodium-dependent noradrenaline transporter (Homo sapiens) (P23975 whole entry): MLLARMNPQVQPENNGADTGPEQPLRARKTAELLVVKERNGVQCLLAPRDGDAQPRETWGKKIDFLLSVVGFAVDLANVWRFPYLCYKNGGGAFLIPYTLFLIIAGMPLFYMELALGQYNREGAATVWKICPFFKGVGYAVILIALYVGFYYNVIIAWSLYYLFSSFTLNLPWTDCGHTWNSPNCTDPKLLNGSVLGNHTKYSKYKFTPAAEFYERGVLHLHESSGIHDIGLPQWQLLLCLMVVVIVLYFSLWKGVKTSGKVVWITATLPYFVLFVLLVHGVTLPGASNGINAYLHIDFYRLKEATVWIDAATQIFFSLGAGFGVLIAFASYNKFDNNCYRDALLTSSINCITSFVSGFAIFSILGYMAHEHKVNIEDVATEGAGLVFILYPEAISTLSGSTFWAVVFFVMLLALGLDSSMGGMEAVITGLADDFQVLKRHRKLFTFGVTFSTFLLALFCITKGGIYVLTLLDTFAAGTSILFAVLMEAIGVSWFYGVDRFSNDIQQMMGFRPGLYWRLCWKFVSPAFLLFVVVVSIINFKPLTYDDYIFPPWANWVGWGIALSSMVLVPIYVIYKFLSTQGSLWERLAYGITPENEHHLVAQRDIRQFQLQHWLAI

[12] = molecular target: Mu-type opioid receptor (Homo sapiens) (UniProt P35372); test: Binding affinity to op-mu receptor (unknown origin) at 10 uM by radioligand binding assay relative to control
[13] = molecular target: 3',5'-cyclic-AMP phosphodiesterase 4D (Homo sapiens) (UniProt Q08499); test: Binding affinity to PDE4D2 receptor (unknown origin) at 10 uM by radioligand binding assay relative to control
Chain of 3',5'-cyclic-AMP phosphodiesterase 4D (Homo sapiens) (Q08499 whole entry): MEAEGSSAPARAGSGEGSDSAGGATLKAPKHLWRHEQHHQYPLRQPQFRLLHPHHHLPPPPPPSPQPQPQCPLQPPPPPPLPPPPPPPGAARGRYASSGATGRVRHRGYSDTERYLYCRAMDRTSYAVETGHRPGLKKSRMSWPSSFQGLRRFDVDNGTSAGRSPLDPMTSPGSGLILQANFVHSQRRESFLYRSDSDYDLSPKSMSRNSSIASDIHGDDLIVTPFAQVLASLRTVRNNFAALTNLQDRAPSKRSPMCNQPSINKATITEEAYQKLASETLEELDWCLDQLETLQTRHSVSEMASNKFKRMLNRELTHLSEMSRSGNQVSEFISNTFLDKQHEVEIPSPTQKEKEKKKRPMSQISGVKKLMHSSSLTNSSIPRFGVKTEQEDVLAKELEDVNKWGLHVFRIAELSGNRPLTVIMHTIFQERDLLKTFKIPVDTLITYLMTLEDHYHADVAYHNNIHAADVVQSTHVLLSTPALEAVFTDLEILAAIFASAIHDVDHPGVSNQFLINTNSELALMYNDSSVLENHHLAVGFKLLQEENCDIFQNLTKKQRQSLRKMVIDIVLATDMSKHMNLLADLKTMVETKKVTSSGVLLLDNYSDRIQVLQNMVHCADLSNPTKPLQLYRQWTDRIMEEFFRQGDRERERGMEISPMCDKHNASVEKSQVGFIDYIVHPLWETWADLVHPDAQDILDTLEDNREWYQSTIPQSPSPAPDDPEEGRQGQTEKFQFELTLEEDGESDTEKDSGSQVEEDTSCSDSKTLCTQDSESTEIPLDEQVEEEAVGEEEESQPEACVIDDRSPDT

[14] = Mutagenicity in Salmonella typhimurium TA97a by Ames test; type: toxicity; conditions: salmonella enterica subsp. enterica serovar typhimurium
[15] = Mutagenicity in Salmonella typhimurium TA100 by Ames test; type: toxicity; conditions: salmonella enterica subsp. enterica serovar typhimurium
[16] = molecular target: Glutamate [NMDA] receptor (Homo sapiens) (UniProt Q05586+Q12879+Q13224+O15399+O60391+Q14957+Q8TCU5); test: Binding affinity to NMDA receptor (unknown origin) at 10 uM by radioligand binding assay relative to control; type: protein-complex assay
[17] = molecular target: Sodium-dependent serotonin transporter (Homo sapiens) (UniProt P31645); test: Binding affinity to 5-HTT (unknown origin) at 10 uM by radioligand binding assay relative to control
Chain of Sodium-dependent serotonin transporter (Homo sapiens) (P31645 whole entry, looked up): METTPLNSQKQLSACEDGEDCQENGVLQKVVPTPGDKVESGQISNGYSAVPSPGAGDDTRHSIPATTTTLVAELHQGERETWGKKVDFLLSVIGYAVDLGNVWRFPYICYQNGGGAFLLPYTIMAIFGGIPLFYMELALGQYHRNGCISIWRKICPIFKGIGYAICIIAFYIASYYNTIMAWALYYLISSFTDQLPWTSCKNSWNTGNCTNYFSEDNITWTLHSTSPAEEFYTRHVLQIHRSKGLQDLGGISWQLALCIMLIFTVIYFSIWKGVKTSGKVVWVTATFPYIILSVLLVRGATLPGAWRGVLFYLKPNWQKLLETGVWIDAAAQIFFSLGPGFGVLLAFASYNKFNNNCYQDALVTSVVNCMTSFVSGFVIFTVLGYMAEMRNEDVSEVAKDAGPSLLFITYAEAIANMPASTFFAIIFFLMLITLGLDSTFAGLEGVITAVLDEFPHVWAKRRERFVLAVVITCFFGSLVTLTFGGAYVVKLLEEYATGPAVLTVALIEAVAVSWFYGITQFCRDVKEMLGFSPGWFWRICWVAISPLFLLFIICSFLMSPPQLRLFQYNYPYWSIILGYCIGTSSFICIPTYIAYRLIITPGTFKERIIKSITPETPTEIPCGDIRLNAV

[18] = Cardiotoxicity in conscious cynomolgus monkey assessed as change in systolic pressure at 3.125 to 12.5 mg/kg, IG measured within 25 hrs; type: toxicity, organism-based, Macaca fascicularis; conditions: in vivo, po, dose 3.125-12.5 mg/kg
[19] = Toxicity in Sprague-Dawley rat assessed as animal death 2.5 to 7.5 mg/kg, po administered once daily for 4 weeks; type: organism-based; conditions: in vivo, 672 h, dose 2.5-7.5 mg/kg
[20] = Toxicity in Sprague-Dawley rat assessed as catalepsy 2.5 to 7.5 mg/kg, po administered once daily for 4 weeks; type: organism-based; conditions: in vivo, 672 h, dose 2.5-7.5 mg/kg
[21] = Toxicity in Sprague-Dawley rat assessed as dyskinesia 2.5 to 7.5 mg/kg, po administered once daily for 4 weeks; type: organism-based; conditions: in vivo, 672 h, dose 2.5-7.5 mg/kg
[22] = Toxicity in male Sprague-Dawley rat assessed as suppression of body weight gain at 7.5 mg/kg, po administered once daily for 4 weeks and measured weekly twice; type: organism-based; conditions: in vivo, 672 h
[23] = Toxicity in male Sprague-Dawley rat assessed as suppression of food consumption at 7.5 mg/kg, po administered once daily for 4 weeks and measured weekly twice; type: organism-based; conditions: in vivo, 672 h
[24] = Toxicity in female Sprague-Dawley rat assessed as suppression of food consumption at 7.5 mg/kg, po administered once daily for 4 weeks and measured after 4 weeks; type: organism-based; conditions: in vivo, 1344 h, time 8 weeks
[25] = Toxicity in female Sprague-Dawley rat assessed as piloerection at 7.5 mg/kg, po administered once daily for 4 weeks; type: organism-based; conditions: in vivo, 672 h
[26] = Toxicity in female Sprague-Dawley rat assessed as irritability at 7.5 mg/kg, po administered once daily for 4 weeks; type: organism-based; conditions: in vivo, 672 h
[27] = Toxicity in female Sprague-Dawley rat assessed as piloerection at 7.5 mg/kg, po administered once daily for 4 weeks and measured after 4 weeks; type: organism-based; conditions: in vivo, 1344 h, time 8 weeks
[28] = Toxicity in male Sprague-Dawley rat assessed as change in clinical chemistry at 2.5 to 7.5 mg/kg, po administered once daily for 4 weeks and measured after 4 weeks; type: organism-based; conditions: in vivo, 1344 h, dose 2.5-7.5 mg/kg, time 8 weeks
[29] = Toxicity in male Sprague-Dawley rat assessed as change in bone marrow smears at 2.5 to 7.5 mg/kg, po administered once daily for 4 weeks and measured after 4 weeks; type: organism-based; conditions: in vivo, 1344 h, dose 2.5-7.5 mg/kg, time 8 weeks
[30] = Toxicity in male Beagle dog assessed as change in blood pressure at 0.75 to 2.5 mg/kg, IG administered once daily for 4 weeks and measured after 4 weeks; type: organism-based, Canis lupus familiaris; conditions: in vivo, po, 1344 h, dose 0.75-2.5 mg/kg, time 8 weeks
[31] = Toxicity in male Beagle dog assessed as change in body temperature at 0.75 to 2.5 mg/kg, IG administered once daily for 4 weeks and measured after 4 weeks; type: organism-based, Canis lupus familiaris; conditions: in vivo, po, 1344 h, dose 0.75-2.5 mg/kg, time 8 weeks
[32] = Toxicity in male Beagle dog assessed as change in organ weight at 0.75 to 2.5 mg/kg, IG administered once daily for 4 weeks and measured after 4 weeks; type: organism-based, Canis lupus familiaris; conditions: in vivo, po, 1344 h, dose 0.75-2.5 mg/kg, time 8 weeks
[33] = Toxicity in male Beagle dog assessed as change in gross necropsy at 0.75 to 2.5 mg/kg, IG administered once daily for 4 weeks and measured after 4 weeks; type: organism-based, Canis lupus familiaris; conditions: in vivo, po, 1344 h, dose 0.75-2.5 mg/kg, time 8 weeks
[34] = Toxicity in female Beagle dog assessed as somnolence at 2.5 mg/kg, IG administered once daily for 4 weeks; type: organism-based, Canis lupus familiaris; conditions: in vivo, po, 672 h
[35] = Toxicity in female Beagle dog assessed as minimal decrease activity at 2.5 mg/kg, IG administered once daily for 4 weeks and measured after 4 weeks; type: organism-based, Canis lupus familiaris; conditions: in vivo, po, 1344 h, time 8 weeks

In the case of `c1cc2c(s1)[C@@H]1CNCCN1CC2`, the Activity [1] is reported as “inactive”, the IC50 (Cytochrome P450 2B6) is reported as > 50 µM and the Ct [2] is reported as 39250 nmol/kg. The Activity (Mus musculus [3]) was “Active; Similar Effect Observed Compared To Brexpiprazole”, the Activity (Mus musculus [4]) was “Dose-dependent-effect” and the Activity (Mus musculus [5]) was “Active”. For the same compound, the Activity (Mus musculus [6]) was “Active”, the ED50 (Mus musculus [7]) was 2.81 mg/kg and the EC50 [8] was 10.9 µM. The IC50 (D(2) dopamine receptor) was > 100 µM, the Activity [9] was 36.5% and the Activity [10] was -0.11%. It also gave an Activity [11] of 8.57%, an Activity [12] of 18.2% and an Activity [13] of 5.4%. For the same compound, the Activity [14] was “Non-toxic”, the Activity [15] was “Non-toxic” and the Activity [16] was 4.53%. For the same compound, the Activity [17] was 1.76%, the Activity [18] was “Non-toxic” and the Activity [19] was “Non-toxic”. For the same compound, the Activity [20] was “Non-toxic”, the Activity [21] was “Non-toxic” and the Activity [22] was “Toxic”. For the same compound, the Activity [23] was “Toxic”, the Activity [24] was “Non-toxic” and the Activity [25] was “Toxic”. The Activity [26] was “Toxic”, the Activity [27] was “Non-toxic” and the Activity [28] was “Non-toxic”. For the same compound, the Activity [29] was “Non-toxic”, the Activity [30] was “Non-toxic” and the Activity [31] was “Non-toxic”. The Activity [32] was “Non-toxic”, the Activity [33] was “Non-toxic” and the Activity [34] was “Toxic”. The Activity [35] was “Non-toxic”.
